These results are taken from ChEMBL document CHEMBL5584331, “Methyl-Transferase-Like Protein 16 (METTL16): The Intriguing Journey of a Key Epitranscriptomic Player Becoming an Emerging Biological Target” (J Med Chem, 2024).

Test [1] has as its target N6-adenosine-methyltransferase catalytic subunit (Homo sapiens, UniProt Q86U44). Briefly: Binding affinity to METTL3 (unknown origin) assessed as dissociation constant.
The subject of another test is NOMO-1. Description: Antiproliferative activity against human NOMO-1 cells assessed as reduction in cell viability incubated for 48 hrs by MTT assay. In kind it is functional, cell-based. The conditions noted are these: NOMO-1, 48 h. A general note: Tetrazolium dyes change colour on reduction, which living cells bring about.

Sequence of N6-adenosine-methyltransferase catalytic subunit (Q86U44 whole entry): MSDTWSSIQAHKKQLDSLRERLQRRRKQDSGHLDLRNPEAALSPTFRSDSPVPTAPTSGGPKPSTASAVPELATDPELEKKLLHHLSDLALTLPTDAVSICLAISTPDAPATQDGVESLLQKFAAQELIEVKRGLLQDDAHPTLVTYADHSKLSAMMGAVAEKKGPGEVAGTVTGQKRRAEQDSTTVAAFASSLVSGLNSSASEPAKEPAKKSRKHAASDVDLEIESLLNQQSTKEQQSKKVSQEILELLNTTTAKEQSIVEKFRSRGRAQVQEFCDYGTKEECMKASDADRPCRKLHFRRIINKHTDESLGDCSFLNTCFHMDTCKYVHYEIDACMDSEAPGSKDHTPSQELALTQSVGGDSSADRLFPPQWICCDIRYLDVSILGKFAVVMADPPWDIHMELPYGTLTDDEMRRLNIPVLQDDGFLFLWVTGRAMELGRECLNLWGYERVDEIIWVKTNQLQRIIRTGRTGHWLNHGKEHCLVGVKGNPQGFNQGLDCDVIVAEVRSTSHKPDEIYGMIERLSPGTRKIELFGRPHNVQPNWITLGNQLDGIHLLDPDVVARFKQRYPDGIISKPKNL

With `C/C(=N\N=C(/N)S)c1ccccc1` [PHENYL(METHYL)THIOSEMICARBAZONE], in test [1], the dissociation constant Kd turned out to be 3.31 µM.

As to `N#Cc1ccc(Cn2ccc3c4c(N)nc(N)nc4ccc32)cc1`, the IC50 with NOMO-1 worked out at 0.0206 µM.

As to `C/C(=N\NC(N)=S)c1ccc(F)cc1`, in test [1], the Kd came to 2.84 µM.

For orientation: Kd means the concentration at which binding is half-saturated. In general, IC50 refers to the concentration that inhibits the measured activity by half.
